Assay results as given in patent US4636490A, “Novel peptidic derivatives inhibiting gastric secretion, process for preparing them and drugs containing them” (Sanofi, priority 1983, dated 1987).
Residues, ends and D or L forms follow the SMILES beside them. *: point of attachment. Cbz = O=C(OCc1ccccc1)*; Boc = CC(C)(C)OC(=O)*

Key:
gastric secretion = assay: Agonist effect: gastric secretory effect of the peptide administered alone i.v., stomach of a reperfused, anaesthetized rat; format: in vivo; details: anaesthetized male Wistar rat
Excerpt: (§1) The compounds according to the invention were studied as far as their therapeutical properties are concerned. More particularly, these compounds were studied in vivo as far as their gastric secretory effect in the rat is concerned. The model chosen for measuring the secretory effect is that of the stomach of a reperfused, anaesthetized rat. The protocol followed is a modification of the one described previously by Ghosh and Schild. A male rat of Wistar strain, weighing 300 g, having fasted for 18 hours, is anaesthetized with urethane (10% solution, 1.5 ml/100 g i.p.). A tracheotomy is then made, as well as a catheterism of the vein of the penis which will allow i.v. administration of the peptides. A cannula is then placed in the oesophagus up to the cardiac orifice and a second cannula in the duodenum (by a duodenotomy made about 3 cm from the pylorus) up to the antral gastric zone. A propionic-succinic solute (pH 5.5) which gives a linear variation of the pH as a function of the concentration of H^+ ions is used for perfusing the stomach in open or closed circuit with a flow rate of 3 ml/min. The body temperature, as well as that of the solute, is monitored and maintained at 30° C. The acid secretion of the stomach will bring about a variation in pH detected by the glass half-cell and recorded as a function of time. After stabilization of the basal secretion, gastrin is injected by the intravenous route, either in perfusion or in a single injection. The response is recorded as a function of time and the quantity of acid secretion is measured on the recording by difference with the basal secretion. The same experiment is carried out either by injecting the peptide to be studied i.v. on a plateau of acid secretion stimulated by the gastrin, or by associating the peptide with the stimulant in variable ratios of concentration. Finally, the peptide is administered alone at different doses in order to examine its agonist effect.

[1] = tested on: gastric secretion stimulated by the gastrin; assay: Antagonist effect: inhibition of gastrin (minigastrin)-stimulated acid secretion, stomach of a reperfused, anaesthetized rat; format: in vivo
Excerpt: as §1

[2] = agonist minigastrin 0.6 μg/kg (single), dose of antagonist 1.5 mg/kg i.v.

| Compound | Secretary effect (40 mins.) (gastric secretion; dose 5000 μg/kg) | Inhibiting effect (%) ([1]; agonist minigastrin 0.6 μg/kg (single), dose of antagonist 1.2 mg/kg i.v.) | Secretary effect (40 mins.) (gastric secretion; dose 10000 μg/kg) | Inhibiting effect (%) [1, 2] | Secretary effect (40 mins.) (gastric secretion; dose 1000 μg/kg) | Inhibiting effect (%) ([1]; agonist minigastrin 1.5 μg/kg/hr (perfusion), dose of antagonist 1.5 mg/kg i.v.) |
| --- | --- | --- | --- | --- | --- | --- |
| CSCC[C@H](NC(=O)[C@H](Cc1c[nH]c2ccccc12)NC(=O)CNC(=O)[C@H](Cc1ccc(O)cc1)NC(=O)OC(C)(C)C)C(=O)N[C@@H](CC(=O)O)C(N)=O [Example 4, Boc--Tyr--Gly--Trp--Met--Asp--NH2] (Boc-YGWMD-NH2) | 0.1 μmol H^+ | 50.4% | – | – | – | – |
| CSCC[C@H](NC(=O)[C@H](Cc1c[nH]c2ccccc12)NC(=O)CNC(=O)[C@H](Cc1ccc(O)cc1)NC(=O)[C@H](C)NC(=O)[C@H](CCC(=O)O)NC(=O)OCc1ccccc1)C(=O)N[C@@H](CC(=O)O)C(N)=O [Example 5, Z--Glu--Ala--Tyr--Gly--Trp--Met--Asp--NH2] (Cbz-EAYGWMD-NH2) | – | – | 0 μmol H^+ | 50% | – | – |
| Z--Tyr(HSO3)--Met--Gly--Trp--Met--Asp--NH2 [Example 3] | – | – | – | 47% | 0.15 μmol H^+ | 47.4% |
